Measurements published in patent US20240286179A1, “METHODS AND COMPOSITIONS FOR WASTE MANAGEMENT SYSTEMS” (priority 2023, published 2024).
Like-named read-outs stand apart in the source and are kept apart here.

Legend:
[1] = tested on: chlorite dismutase (Cld) enzymes; details: for balloon inflation: creek water
Method: A qualitative sampling device was created using: 300 mL plastic water bottle, 7-inch balloon and 3×⅛ in rubber band. Freshwater, wet creek bed soil (alluvial soil), and dry creek bank soil samples were collected from a stream habitat (Denton Creek in Coppell, Texas). Samples were placed in a sampling device with or without sodium chlorite (0 g, 16 g, or 32 g) to screen for the presence of Cld enzymes by observing inflation of balloon.

[2] = tested on: chlorite dismutase (Cld) enzymes
Method: Using water displacement method, the oxygen production and yield were calculated from 4 gm of sodium chlorite in a 300 mL wet creek bed soil sample (526 gm) placed in 500 mL Erlenmeyer flask with rubber stopper connected with rubber tubing to an inverted 1 L graduated beaker full of water and placed in a rectangular plastic tub with water.

[3] = tested on: methanogenesis
Method: A composting experiment was conducted in a 2-liter plastic soda bottle with 1 cup of organic food waste from kitchen waste with coffee grounds, 1 cup of leaves or grass clippings, 1 cup of shredded paper, and 4 cups of wet creek bed soil with 16 g of sodium chlorite (9.6 g/kg soil concentration) or 4 cups of wet creek bed soil without sodium chlorite. Gas produced in this experiment was collected using water displacement method. The %/Vol of methane was measured with a portable multi 4 gas detector with air gas sampling pump.
The LEL of CH4 is 5% of gas volume.

[4] = tested on: chlorite dismutase (Cld) enzymes; details: 16 g NaClO2 (30 g/kg)
Method: A qualitative reactor for detection of gas production was designed and constructed using: 300 mL plastic water bottle, 7-inch balloon and 3×⅛ in rubber band. The surface creek soil, deep creek soil, and landfill soil cover samples were placed in qualitative reactor with 16 g NaClO2 (30 g/kg soil concentration) and without any NaClO2 to screen for the presence of Cld enzymes by observing the inflation of balloon indicating biogas production.

[5] = tested on: methanogenesis; remark: listed apart in the source
Method: An anoxic composting reactor was designed and constructed that comprised of a 2-liter plastic soda bottle attached to a 200 ml foil gas bag for quantitative gas analysis using gas chromatography. Composting experiments in anoxic composting reactor were conducted with 1 cup of organic food waste from kitchen waste with coffee grounds, 1 cup of leaves or grass clippings, 1 cup of shredded paper, and 4 cups of surface creek soil with 16 g of NaClO2 (9.6 g/kg soil concentration) or 4 cups of surface creek soil without NaClO2 or 4 cups of landfill cover soil with 16 g of NaClO2, or 4 cups or landfill cover soil without NaClO2.
Volumes of gas in the foil bags were estimated over a 3-week period. The gas samples were analyzed for fixed gases (hydrogen, oxygen, nitrogen, carbon monoxide, methane, and carbon dioxide) according to modified EPA Method 3C (single injection) using a gas chromatograph equipped with a thermal conductivity detector by ALS Environmental (Simi Valley, CA).

[6] = wet creek bed soil with 16 g NaClO2 (9.6 g/kg)

sodium chlorite [NaClO2]
time to rapid balloon inflation ([1]; alluvial creek bed soil, 16 g (0.053 g/ml) NaClO2): ≤ 6 h
balloon inflation ([1]; 16 g (0.053 g/ml) NaClO2, after 2 days): no balloon inflation
balloon inflation ([1]; 32 g (0.11 g/ml) NaClO2, after 2 days): no balloon inflation
measurable gas production ([2]; 4 g NaClO2 in 526 g creek bed soil (7.6 g/kg), over a 65-hour period before plateauing): 145 mL
measurable volume as % of theoretical oxygen yield ([2]; reduction of 4 grams NaClO2, calculated using the Ideal Gas Law): around 14%
Methane % Day 12 ([3]; Volume %, 16 g NaClO2 (9.6 g/kg), Day 12): 0.75%
Methane % Day 23 ([3]; Volume %, 16 g NaClO2 (9.6 g/kg), Day 23): 0%
Methane % Day 34 ([3]; Volume %, 16 g NaClO2 (9.6 g/kg), Day 34): 0%
time at which gas production plateaued [3, 6]: about 134 hours
time at which gas production was noted after set-up [3, 6]: one
time within which most of the measurable gas production occurred [3, 6]: ≤ 46 h
time to rapid balloon inflation ([4]; deep creek soil): ≤ 6 h
balloon inflation ([4]; landfill cover soil): did not show any balloon inflation
time to rapid balloon inflation ([4]; surface creek soil): ≤ 6 h
millimoles of methane generated, creek reactors without NaClO2 compared with creek reactors with NaClO2 ([5]; P-value=0.037, one-tailed paired t test): significantly higher
volume of biogas produced ([5]; creek soil reactors with NaClO2, spread +/−81, P=0.009 vs without NaClO2): 328 mL
CO2 levels in gas ([5]; landfill soil cover samples with or without NaClO2): lower levels of CO2
CO2 levels in gas ([5]; surface creek soil, 16 g NaClO2 (9.6 g/kg)): increasing levels of CO2
onset of gas production ([5]; surface creek soil, 16 g NaClO2 (9.6 g/kg), over a 60-hour period): immediate gas production
